The source of these data is PubChem BioAssay (NCI).

Test systems include HOP-62 NSCLC; ACHN renal; OVCAR-3 ovarian; HS 578T breast; RXF 393 renal; T-47D breast; K-562 leukemia; U251 CNS; UACC-257 melanoma; CCRF-CEM leukemia.
Holding throughout (test): NCI anticancer screen, dose series, 48 h

The structures appear in SMILES notation. Where “and” joins values, the source holds several entries; their conditions need not be identical. Identical values can stand only once.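 Step 1: Grow cells in 96-well plates. Step 2: Expose to compound for 48 hours at 5 concentrations. Step 3: Interpolate endpoints linearly; if unreached, use highest concentration. GI50 = concentration required for 50% inhibition of growth. The concentration for full growth arrest is given as TGI.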

On to `Cn1ncc(-c2ccc3c(=O)[nH]nc(CN)c3c2)c1-c1c(F)c(Cl)cc(OC2CC2)c1C#N`, for which the GI50 with HOP-62 NSCLC is 16.1 µM and 13.4 µM; with ACHN renal, 15.8 µM and 15.3 µM; in the assay with OVCAR-3 ovarian, 15 µM and 12.6 µM; in the assay with HS 578T breast it was 12.4 µM and 11 µM; in the assay with RXF 393 renal it was 6.22 µM and 2.24 µM; with T-47D breast, 12.3 µM and 6.06 µM. Moreover, the GI50 was 14.5 µM and 14.8 µM in the assay on K-562 leukemia; 14.9 µM and 13.7 µM in the assay on U251 CNS; 13.9 µM and 14.1 µM in the assay on UACC-257 melanoma; 22.3 µM and 33.4 µM in the assay with CCRF-CEM leukemia. Also, the TGI in the assay on HOP-62 NSCLC is 33.7 µM and 27.8 µM; in the assay with ACHN renal, 30.5 µM and 28.9 µM; with OVCAR-3 ovarian, 30.6 µM and 26.5 µM; with HS 578T breast, 33.8 µM and 29.9 µM; with RXF 393 renal it was 21.4 µM and 12.9 µM; in the assay with T-47D breast, 36.5 µM and 28.4 µM. Further, the TGI with K-562 leukemia is 92.1 µM and > 100 µM; with U251 CNS, 29.5 µM and 27.5 µM; with UACC-257 melanoma, 28.4 µM and 29.4 µM; with CCRF-CEM leukemia it was over 100 µM.
As to `O=C1OCC2=C1C(c1cccc(F)c1)c1cc3c(cc1N2CCO)OCO3` (centres undefined), the GI50 with HOP-62 NSCLC is 2.19 µM; with ACHN renal, 3.03 µM; in the assay on OVCAR-3 ovarian it was 1.27 µM; in the assay with HS 578T breast it was 1.42 µM; in the assay on RXF 393 renal it was 1.51 µM; with T-47D breast it was 2.18 µM. Also, the GI50 in the assay with K-562 leukemia is 0.353 µM; with U251 CNS, 2.5 µM; in the assay on UACC-257 melanoma it was over 50 µM; with CCRF-CEM leukemia, 2.37 µM. In addition, the TGI in the assay with HOP-62 NSCLC is over 50 µM; in the assay on ACHN renal, over 50 µM; in the assay on OVCAR-3 ovarian, over 50 µM; in the assay with HS 578T breast, over 50 µM; in the assay with RXF 393 renal, 4.96 µM; in the assay on T-47D breast, over 50 µM. The TGI in the assay on K-562 leukemia, with U251 CNS, in the assay on UACC-257 melanoma and in the assay on CCRF-CEM leukemia was over 50 µM throughout.
On to `CCN1C(=O)N(CC)C2C1NN=c1s/c(=C\c3ccc(Cl)cc3Cl)c(=O)n12` (centres undefined), for which the GI50 in the assay with HOP-62 NSCLC was 0.0469 µM; with ACHN renal it was 0.0513 µM; in the assay on OVCAR-3 ovarian it was 0.0263 µM; in the assay with HS 578T breast, 0.0379 µM; in the assay on RXF 393 renal it was 0.0327 µM; in the assay with T-47D breast, 15.7 µM. The GI50 in the assay with K-562 leukemia is 0.0309 µM; with U251 CNS it was 0.0365 µM; in the assay with UACC-257 melanoma, 1.05 µM; in the assay with CCRF-CEM leukemia, 0.0361 µM. The TGI in the assay with HOP-62 NSCLC is over 72.8 µM; in the assay with ACHN renal it was over 51.2 µM; in the assay with OVCAR-3 ovarian, 0.0665 µM; with HS 578T breast it was over 50.5 µM; in the assay on RXF 393 renal, 14.7 µM; with T-47D breast, 99.3 µM. Moreover, the TGI in the assay on K-562 leukemia was 28 µM; in the assay with U251 CNS it was over 41.3 µM; in the assay with UACC-257 melanoma it was over 88.4 µM; in the assay on CCRF-CEM leukemia, over 100 µM.
For `c1ccc(NN(Cc2cnccn2)c2ccccc2)cc1`, the TGI in the assay on HOP-62 NSCLC, in the assay with ACHN renal, in the assay on OVCAR-3 ovarian, with HS 578T breast, in the assay on RXF 393 renal and in the assay with T-47D breast was over 100 µM each time. In addition, the TGI with K-562 leukemia is over 100 µM; in the assay with U251 CNS, over 100 µM; in the assay with UACC-257 melanoma, over 100 µM; with CCRF-CEM leukemia, 51.2 µM.
With `C[C@@H](NC(C#N)c1ccco1)c1ccccc1` (some centres undefined), the TGI in the assay on HOP-62 NSCLC, in the assay with ACHN renal, with OVCAR-3 ovarian, in the assay with HS 578T breast, in the assay with RXF 393 renal and with T-47D breast was over 100 µM in each case. For the same compound, the TGI in the assay on K-562 leukemia, with U251 CNS, in the assay on UACC-257 melanoma and with CCRF-CEM leukemia was over 100 µM throughout.
As for `CO/N=C(\COc1ccc2c(c1)[nH]c1ccccc12)c1ccc(OC)cc1`, the GI50 is 6.26 µM with HOP-62 NSCLC; 18.8 µM with ACHN renal; 32.9 µM in the assay on OVCAR-3 ovarian; 18.9 µM in the assay on HS 578T breast; 15.8 µM in the assay on RXF 393 renal; over 100 µM in the assay with T-47D breast. The GI50 was 31 µM in the assay with K-562 leukemia, 15.2 µM in the assay with U251 CNS, 11.4 µM in the assay on UACC-257 melanoma and over 100 µM in the assay on CCRF-CEM leukemia. The TGI in the assay on HOP-62 NSCLC was 64 µM; in the assay on ACHN renal it was over 100 µM; in the assay on OVCAR-3 ovarian it was over 100 µM; with HS 578T breast it was over 100 µM; in the assay with RXF 393 renal, over 100 µM; in the assay on T-47D breast, over 100 µM. The TGI with K-562 leukemia was over 100 µM; with U251 CNS it was over 100 µM; with UACC-257 melanoma, 47.1 µM; with CCRF-CEM leukemia, over 100 µM.
`CCSC1=NC2C(N(CC)C(=O)N2CC)N1/N=C/C=C/c1ccccc1[N+](=O)[O-]` (centres undefined): the GI50 with HOP-62 NSCLC is 0.313 µM; in the assay on ACHN renal it was 0.121 µM; with OVCAR-3 ovarian, 0.169 µM; in the assay with HS 578T breast, 0.118 µM; with RXF 393 renal, 0.033 µM; with T-47D breast, 2.59 µM. Moreover, the GI50 in the assay on K-562 leukemia is 0.0583 µM; in the assay on U251 CNS, 0.174 µM; with UACC-257 melanoma, 23.8 µM; with CCRF-CEM leukemia, 0.331 µM. Also, the TGI was over 100 µM in the assay with HOP-62 NSCLC; over 100 µM in the assay on ACHN renal; over 100 µM with HS 578T breast; over 100 µM in the assay on RXF 393 renal; over 82.1 µM in the assay with T-47D breast; over 100 µM with K-562 leukemia. Also, the TGI in the assay on U251 CNS, in the assay with UACC-257 melanoma and in the assay with CCRF-CEM leukemia was over 100 µM in each case.
For the compound `O=S(=O)(/N=c1\scc(-c2ccccc2)n1-c1ccccc1)c1ccc(N2N=C3c4ccccc4CC3C2c2ccc(Cl)cc2)cc1` (centres undefined), the GI50 was 93.9 µM with HOP-62 NSCLC; 40.1 µM with ACHN renal; 44.3 µM in the assay with OVCAR-3 ovarian; 33 µM with HS 578T breast; 42 µM with RXF 393 renal; over 100 µM with T-47D breast. Also, the GI50 was 20 µM in the assay with K-562 leukemia, 26.1 µM in the assay with U251 CNS, 83.5 µM in the assay with UACC-257 melanoma and 18.6 µM with CCRF-CEM leukemia. Further, the TGI in the assay on HOP-62 NSCLC, in the assay with ACHN renal, in the assay with OVCAR-3 ovarian, in the assay on HS 578T breast, with RXF 393 renal and with T-47D breast was over 100 µM each time. Also, the TGI was 55.5 µM in the assay with K-562 leukemia, 75.5 µM with U251 CNS, over 100 µM in the assay with UACC-257 melanoma and 59.3 µM with CCRF-CEM leukemia.
